Key:
[1] = target: Epidermal growth factor receptor [T790M,L858R] (Homo sapiens, UniProt P00533, L858R/T790M); test: EGFR kinase Enzymatic Activity Test 1
Procedure: (§1) To assess the effect of compounds on the activity of wild-type and mutant EGFR kinases, kinase activity was tested by measuring ATP consumption in an enzymatic reaction using an ADP-Glo (Promega Corporation) kit. Samples to be tested were dissolved in DMSO and diluted in a gradient. In a microplate, an EGFR kinase, a reaction buffer (containing Tris-HCl with a pH of 7.5, MgCl2, DTT and BSA), a kinase substrate Poly(Glu4, Tyr1) and a sample (a total volume of 20 μL per well) were added per well, while a blank control (no enzyme and sample) and a negative control (no sample) were set up; incubated for 15 minutes at 23° C.; added with 5 μL of ATP, and reacted at 23° C. for 60 minutes; added with ADP-Glo Reagent, and continuously reacted for 40 minutes at room temperature to inactivate the redundant ATP; then, added with a Kinase Detection Reagent, and reacted at room temperature for 30 minutes, then the chemiluminescence intensity L of each well was measured. […] IC50 values were calculated according to the above calculation using 4Parameter Logistic Model in XLfit software.

[2] = target: Epidermal growth factor receptor (Homo sapiens, UniProt P00533); test: EGFR kinase Enzymatic Activity Test 1
Procedure: as §1

Sequence of Epidermal growth factor receptor [T790M,L858R] (P00533 25-1210 T790M/L858R limits assumed): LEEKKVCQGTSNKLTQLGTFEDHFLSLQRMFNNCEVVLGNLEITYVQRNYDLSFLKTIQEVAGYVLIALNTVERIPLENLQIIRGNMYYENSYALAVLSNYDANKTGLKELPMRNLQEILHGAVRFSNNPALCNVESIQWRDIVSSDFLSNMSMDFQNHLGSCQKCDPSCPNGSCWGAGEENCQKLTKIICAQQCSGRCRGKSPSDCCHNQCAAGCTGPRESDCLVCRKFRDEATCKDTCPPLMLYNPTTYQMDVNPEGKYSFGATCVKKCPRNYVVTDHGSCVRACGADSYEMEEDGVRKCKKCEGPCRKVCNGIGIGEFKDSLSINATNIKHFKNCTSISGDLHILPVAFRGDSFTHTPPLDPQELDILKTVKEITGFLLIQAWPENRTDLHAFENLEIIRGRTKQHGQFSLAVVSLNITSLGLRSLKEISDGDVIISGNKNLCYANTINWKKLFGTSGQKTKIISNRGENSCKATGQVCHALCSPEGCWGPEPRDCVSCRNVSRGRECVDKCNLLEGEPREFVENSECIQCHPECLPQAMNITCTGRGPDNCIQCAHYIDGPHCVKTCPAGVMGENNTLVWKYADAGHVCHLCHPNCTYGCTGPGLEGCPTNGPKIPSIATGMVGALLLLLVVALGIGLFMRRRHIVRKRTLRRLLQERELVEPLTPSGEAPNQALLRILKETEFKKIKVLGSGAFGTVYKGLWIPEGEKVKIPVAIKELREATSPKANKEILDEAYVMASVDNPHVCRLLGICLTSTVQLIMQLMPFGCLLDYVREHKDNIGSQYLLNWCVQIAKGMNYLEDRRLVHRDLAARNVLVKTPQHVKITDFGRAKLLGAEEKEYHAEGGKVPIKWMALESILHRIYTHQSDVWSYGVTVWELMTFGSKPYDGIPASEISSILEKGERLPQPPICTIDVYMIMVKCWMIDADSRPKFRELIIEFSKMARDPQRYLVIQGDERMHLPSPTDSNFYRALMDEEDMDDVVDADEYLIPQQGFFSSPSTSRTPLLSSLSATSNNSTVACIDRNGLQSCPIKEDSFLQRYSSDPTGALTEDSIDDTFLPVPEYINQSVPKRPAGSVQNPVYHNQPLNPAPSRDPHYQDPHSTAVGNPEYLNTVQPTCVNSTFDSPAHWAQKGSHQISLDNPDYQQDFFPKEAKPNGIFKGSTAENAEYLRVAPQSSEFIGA
Sequence of Epidermal growth factor receptor (P00533 whole entry): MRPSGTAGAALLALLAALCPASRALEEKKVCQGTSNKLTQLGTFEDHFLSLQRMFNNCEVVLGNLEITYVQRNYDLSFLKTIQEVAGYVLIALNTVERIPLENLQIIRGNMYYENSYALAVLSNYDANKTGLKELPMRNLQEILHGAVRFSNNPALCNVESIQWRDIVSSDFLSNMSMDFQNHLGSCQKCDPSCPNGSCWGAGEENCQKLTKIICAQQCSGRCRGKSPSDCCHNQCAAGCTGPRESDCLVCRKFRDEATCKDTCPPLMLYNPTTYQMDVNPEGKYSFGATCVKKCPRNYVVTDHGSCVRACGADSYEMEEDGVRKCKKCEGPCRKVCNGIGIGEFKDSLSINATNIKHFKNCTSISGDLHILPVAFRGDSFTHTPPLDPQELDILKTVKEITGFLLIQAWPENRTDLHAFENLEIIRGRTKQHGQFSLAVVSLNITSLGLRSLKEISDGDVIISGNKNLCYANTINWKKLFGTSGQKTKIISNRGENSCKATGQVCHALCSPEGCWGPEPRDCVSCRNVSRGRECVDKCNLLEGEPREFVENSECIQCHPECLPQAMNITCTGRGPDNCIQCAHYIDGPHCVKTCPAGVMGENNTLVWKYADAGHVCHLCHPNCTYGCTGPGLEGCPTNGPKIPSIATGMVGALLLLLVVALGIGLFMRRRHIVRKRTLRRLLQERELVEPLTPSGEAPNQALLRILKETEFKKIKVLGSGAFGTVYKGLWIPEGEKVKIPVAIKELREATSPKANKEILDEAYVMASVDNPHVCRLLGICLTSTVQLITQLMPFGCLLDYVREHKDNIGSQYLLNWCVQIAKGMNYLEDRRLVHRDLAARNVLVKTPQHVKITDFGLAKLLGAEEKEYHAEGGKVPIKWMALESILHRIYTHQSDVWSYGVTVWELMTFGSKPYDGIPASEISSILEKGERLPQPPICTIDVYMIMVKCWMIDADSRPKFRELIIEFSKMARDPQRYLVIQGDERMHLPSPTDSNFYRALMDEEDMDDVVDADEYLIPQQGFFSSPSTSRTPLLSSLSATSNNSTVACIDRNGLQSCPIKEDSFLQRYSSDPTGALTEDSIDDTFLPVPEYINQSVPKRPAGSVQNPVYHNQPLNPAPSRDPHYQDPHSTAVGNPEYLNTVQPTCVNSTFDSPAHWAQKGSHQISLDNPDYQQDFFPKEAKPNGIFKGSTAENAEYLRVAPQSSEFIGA

Q: What does the source list for COc1cc(N2CCC(N3CCN(C)CC3)CC2)c(C)cc1Nc1ncc(Br)c(Nc2ccc(C)cc2P(C)(C)=O)n1 [US20230322822, Compound 2]?
A: IC50 [1]: 24.8 nM; IC50 [2]: 169 nM
